Measurements reported in the supplement of paper PMC10307832.

Tests used:
Assay in all cases: relative viability (nuclei count vs DMSO), 5 days (fraction); higher = more cells survive
[1] = compound: CN1CCC(CNc2ccc3ncc(-c4cccc(OC(F)(F)F)c4)n3n2)CC1 [SGI-1776] + C[C@]1(O)C[C@@H](c2nc(-c3ccc4ccc(-c5ccccc5)nc4c3)c3c(N)nccn32)C1 [Linsitinib] (partner 1 µM)
How it was run: (§1)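 Relative viability was taken as the ratio of nuclei in treated wells to nuclei in vehicle wells. Lung cancer cell lines in 1536-well plates received compounds by pin tool one day after seeding, either one drug alone or a fixed anchor-drug dose plus five library-drug doses (not always all listed) in √10 steps. Nuclei were counted on 4× images after 5 days of treatment, and values are medians of duplicate plates.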

[2] = compound: Nc1ccccc1NC(=O)c1ccc(CNC(=O)OCc2cccnc2)cc1 [Entinostat] + CC(=O)c1c(C)c2cnc(Nc3ccc(N4CCNCC4)cn3)nc2n(C2CCCC2)c1=O [Palbociclib] (partner 0.5 µM)
How it was run: as §1

[3] = compound: CN1CCC(CNc2ccc3ncc(-c4cccc(OC(F)(F)F)c4)n3n2)CC1 [SGI-1776] + CS(=O)(=O)N1CCN(Cc2cc3nc(-c4cccc5[nH]ncc45)nc(N4CCOCC4)c3s2)CC1 [Pictilisib] (partner 1 µM)
How it was run: as §1

[4] = compound: Nc1ccccc1NC(=O)c1ccc(CNC(=O)OCc2cccnc2)cc1 [Entinostat] + Nc1nc2[nH]cc(CCc3ccc(C(=O)N[C@@H](CCC(=O)O)C(=O)O)cc3)c2c(=O)[nH]1 [Pemetrexed] (partner 0.2 µM)
How it was run: as §1

Cell Line	relative viability ([1]; first compound 0.08 µM)	relative viability ([1]; first compound 0.8 µM)	relative viability ([1]; first compound 2.53 µM)	relative viability ([1]; first compound 8 µM)	relative viability ([2]; first compound 0.02 µM)	relative viability ([2]; first compound 0.06325 µM)	relative viability ([2]; first compound 0.2 µM)	relative viability ([2]; first compound 0.6325 µM)	relative viability ([2]; first compound 2 µM)	relative viability ([3]; first compound 0.08 µM)	relative viability ([3]; first compound 0.8 µM)	relative viability ([3]; first compound 2.53 µM)	relative viability ([3]; first compound 8 µM)	relative viability ([4]; first compound 0.02 µM)	relative viability ([4]; first compound 0.06325 µM)	relative viability ([4]; first compound 0.2 µM)	relative viability ([4]; first compound 0.6325 µM)	relative viability ([4]; first compound 2 µM)
NCI-H838	1.03	0.982	1.02	0.684	0.254	0.224	0.28	0.236	0.171	0.446	0.398	0.414	0.277	0.231	0.222	0.268	0.247	0.183
HARA	1.11	0.921	0.909	0.945	0.301	0.298	0.258	0.272	0.266	0.445	0.373	0.306	0.243	0.233	0.22	0.31	0.257	0.247
NCI-H23	0.724	0.541	0.517	0.411	0.568	0.661	0.507	0.509	0.283	0.558	0.448	0.449	0.387	0.76	0.892	0.728	0.685	0.319
LOU-NH91	1.06	1.03	0.955	0.666	0.466	0.581	0.532	0.531	0.508	0.565	0.55	0.505	0.504	0.381	0.333	0.326	0.341	0.379
LCLC-103H	1.07	0.972	1.1	0.979	0.526	0.438	0.406	0.429	0.427	0.752	0.608	0.554	0.45	0.472	0.463	0.443	0.454	0.426
SW 1573	0.94	0.777	0.765	0.741	0.322	0.486	0.434	0.428	0.311	0.452	0.449	0.424	0.393	0.806	0.88	1.08	0.966	0.452
EKVX	1.1	0.985	1.01	0.863	0.467	0.434	0.343	0.326	0.242	0.421	0.453	0.455	0.379	0.402	0.376	0.385	0.344	0.273
IA-LM	0.732	0.603	0.593	0.692	–	–	–	–	–	0.281	0.328	0.389	0.242	–	–	–	–	–
HCC-827	0.961	0.978	0.952	0.875	0.407	0.436	0.336	0.311	0.184	1.02	1.21	1.09	0.877	0.268	0.265	0.227	0.229	0.187
NCI-H661	0.74	0.643	0.545	0.502	0.411	0.464	0.429	0.391	0.355	0.526	0.429	0.363	0.317	0.886	0.916	0.814	0.663	0.354
CAL-12T	0.916	0.821	0.821	0.756	0.516	0.602	0.637	0.384	0.266	0.559	0.592	0.341	0.385	1.17	1.09	1.49	1.21	0.676
NCI-H2342	–	–	–	–	0.528	0.523	0.53	0.49	0.485	–	–	–	–	0.811	0.849	0.708	0.638	0.668
SW 900	–	–	–	–	0.547	0.582	0.576	0.509	0.344	–	–	–	–	0.529	0.51	0.448	0.489	0.43
LC-2-ad	0.842	0.959	0.911	0.639	0.473	0.412	0.417	0.421	0.323	0.428	0.522	0.544	0.254	0.286	0.276	0.28	0.302	0.33
EPLC-272H	1.18	1.19	1.34	1.11	0.406	0.334	0.364	0.282	0.215	0.315	0.318	0.188	0.259	0.391	0.322	0.304	0.244	0.248
A-427	1.13	1.19	1.16	1.07	0.555	0.537	0.463	0.401	0.368	0.704	0.694	0.824	0.657	1.03	0.971	0.922	0.904	0.765
NCI-H650	1.07	0.952	0.686	0.727	0.412	0.349	0.361	0.257	0.167	0.958	0.731	0.868	0.644	0.952	0.951	0.833	0.794	0.353
NCI-H1993	0.755	0.76	0.78	0.645	0.653	0.667	0.725	0.642	0.273	0.711	0.665	0.839	0.703	0.53	0.609	0.558	0.536	0.472
NCI-H358	0.725	0.756	0.758	0.388	0.134	0.14	0.17	0.127	0.125	0.37	0.375	0.334	0.253	0.163	0.168	0.158	0.128	0.135
